Target: T1, Endothelin-1 receptor (Sus scrofa, UniProt Q29010)
T1 sequence (Q29010 whole entry): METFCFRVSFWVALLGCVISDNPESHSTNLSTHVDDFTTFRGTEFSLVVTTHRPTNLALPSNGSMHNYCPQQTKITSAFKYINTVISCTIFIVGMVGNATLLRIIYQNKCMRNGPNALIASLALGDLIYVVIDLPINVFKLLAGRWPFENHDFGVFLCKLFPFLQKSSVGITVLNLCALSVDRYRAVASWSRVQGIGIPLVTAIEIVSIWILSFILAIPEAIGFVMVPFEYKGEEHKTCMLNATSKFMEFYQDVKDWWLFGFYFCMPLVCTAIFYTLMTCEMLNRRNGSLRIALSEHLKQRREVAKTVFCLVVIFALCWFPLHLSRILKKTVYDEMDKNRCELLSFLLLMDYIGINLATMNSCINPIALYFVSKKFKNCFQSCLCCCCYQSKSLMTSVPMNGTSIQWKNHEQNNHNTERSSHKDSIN
Experiment: The compound was tested for binding inhibitory activity against Endothelin A receptor from porcine aortic smooth muscle membranes.

| SMILES | IC50 max [nM] |
| --- | --- |
| CC(C)C[C@@H]1NC(=O)[C@@H](C)NC(=O)[C@H](CC(=O)O)NC(=O)[C@H](Cc2c[nH]c3ccccc23)NC(=O)[C@@H](CC(C)C)NC1=O | 440 |
| CC(C)C[C@@H]1NC(=O)[C@@H]([C@H](C)O)NC(=O)[C@H](C)NC(=O)[C@@H](CC(=O)O)NC(=O)[C@@H](Cc2c[nH]c3ccccc23)NC1=O | 4200 |
| CC(C)C[C@@H]1NC(=O)[C@@H](C(C)C)NC(=O)[C@H](CCCCN)NC(=O)[C@@H](CC(=O)O)NC(=O)[C@@H](Cc2c[nH]c3ccccc23)NC1=O (single isomer, unassigned) | 200 |
| CC(C)C[C@@H]1NC(=O)[C@@H](C(C)C)NC(=O)[C@H](Cc2ccccc2)NC(=O)[C@@H](CC(=O)O)NC(=O)[C@@H](Cc2c[nH]c3ccccc23)NC1=O (single isomer, unassigned) | 210 |
| CC(C)C[C@@H]1NC(=O)[C@@H](C(C)C)NC(=O)[C@H](CCCN=C(N)N)NC(=O)[C@@H](CC(=O)O)NC(=O)[C@@H](Cc2c[nH]c3ccccc23)NC1=O (single isomer, unassigned) | 150 |
| CC(C)C[C@@H]1NC(=O)CNC(=O)[C@H](CO)NC(=O)[C@@H](CC(=O)O)NC(=O)[C@@H](Cc2c[nH]c3ccccc23)NC1=O (single isomer, unassigned) | 35000 |
| CC(C)C[C@@H]1NC(=O)[C@@H](C(C)C)NC(=O)[C@H](C)NC(=O)[C@H](CCC(=O)O)NC(=O)[C@H](Cc2c[nH]c3ccccc23)NC1=O (single isomer, unassigned) | > 100000 |
| CC(C)C[C@@H]1NC(=O)[C@@H](C(C)C)NC(=O)[C@H](C)NC(=O)[C@@H](CCC(=O)O)NC(=O)[C@H](Cc2c[nH]c3ccccc23)NC1=O (single isomer, unassigned) | > 100000 |
| CC(C)C[C@@H]1NC(=O)[C@@H](C(C)C)NC(=O)[C@H](C)NC(=O)[C@H](CCC(=O)O)NC(=O)[C@@H](Cc2c[nH]c3ccccc23)NC1=O (single isomer, unassigned) | > 100000 |
| CC(C)C[C@@H]1NC(=O)[C@@H](CC(=O)O)NC(=O)[C@H](CO)NC(=O)[C@@H](CC(=O)O)NC(=O)[C@@H](Cc2c[nH]c3ccccc23)NC1=O (single isomer, unassigned) | > 100000 |
| CC(C)C[C@@H]1NC(=O)[C@@H](C(C)C)NC(=O)[C@H](Cc2cnc[nH]2)NC(=O)[C@@H](CC(=O)O)NC(=O)[C@@H](Cc2c[nH]c3ccccc23)NC1=O (single isomer, unassigned) | 240 |
| CSCC[C@@H]1NC(=O)[C@@H](CC(=O)O)NC(=O)[C@@H](Cc2c[nH]c3ccccc23)NC(=O)[C@H](CC(C)C)NC(=O)[C@@H](C(C)C)NC1=O (single isomer, unassigned) | 130 |
| CC(C)C[C@@H]1NC(=O)[C@@H](C(C)C)NC(=O)[C@H](CCC(N)=O)NC(=O)[C@@H](CC(=O)O)NC(=O)[C@@H](Cc2c[nH]c3ccccc23)NC1=O (single isomer, unassigned) | 160 |
| CC(C)C[C@@H]1NC(=O)[C@@H](C(C)C)NC(=O)[C@H](C)NC(=O)[C@@H](CCC(=O)O)NC(=O)[C@@H](Cc2c[nH]c3ccccc23)NC1=O (single isomer, unassigned) | 3000 |

Second part, the molecule after the results:

| IC50 max [nM] | SMILES |
| --- | --- |
| 12 | CC[C@H](C)[C@H]1NC(=O)[C@@H]2CCCN2C(=O)[C@@H](CC(=O)O)NC(=O)[C@@H](Cc2c[nH]c3ccccc23)NC(=O)[C@H](CC(C)C)NC1=O |
| 64 | CC[C@@H](C)[C@H]1NC(=O)[C@@H]2CCCN2C(=O)[C@@H](CC(=O)O)NC(=O)[C@@H](Cc2c[nH]c3ccccc23)NC(=O)[C@H](CC(C)C)NC1=O |
| 18 | CC(C)C[C@H]1NC(=O)[C@H](C(C)C)NC(=O)[C@H]2C[C@@H](O)CN2C(=O)[C@H](CC(=O)O)NC(=O)[C@H](Cc2c[nH]c3ccccc23)NC1=O |
| 13 | CC(C)C[C@@H]1NC(=O)[C@@H](C(C)C)NC(=O)[C@@H]2CCCCN2C(=O)[C@@H](CC(=O)O)NC(=O)[C@@H](Cc2c[nH]c3ccccc23)NC1=O |
| 190 | CC(C)C[C@@H]1NC(=O)[C@@H](C(C)C)NC(=O)[C@H](CO)NC(=O)[C@@H](CC(=O)O)NC(=O)[C@@H](Cc2c[nH]c3ccccc23)NC1=O (single isomer, unassigned) |
| 530 | CC(C)C[C@@H]1NC(=O)[C@@H](C(C)C)NC(=O)[C@H](C(C)C)NC(=O)[C@@H](CC(=O)O)NC(=O)[C@@H](Cc2c[nH]c3ccccc23)NC1=O (single isomer, unassigned) |
| 180 | CC(C)C[C@@H]1NC(=O)[C@@H](C(C)C)NC(=O)[C@H](CC(=O)O)NC(=O)[C@@H](CC(=O)O)NC(=O)[C@@H](Cc2c[nH]c3ccccc23)NC1=O (single isomer, unassigned) |
| 35 | CC(C)C[C@H]1C(=O)N[C@H](Cc2c[nH]c3ccccc23)C(=O)N[C@H](CC(=O)O)C(=O)N2CCC[C@H]2C(=O)N[C@H](C(C)C)C(=O)N1C (single isomer, unassigned) |
| 110 | CC(C)C[C@@H]1NC(=O)[C@@H](C(C)C)NC(=O)[C@H](C)NC(=O)[C@@H](CC(=O)O)NC(=O)[C@@H](Cc2c[nH]c3ccccc23)NC1=O (single isomer, unassigned) |
| 15 | CC(C)C[C@@H]1NC(=O)[C@@H](C(C)(C)C)NC(=O)[C@@H]2CCCN2C(=O)[C@@H](CC(=O)O)NC(=O)[C@@H](Cc2c[nH]c3ccccc23)NC1=O (single isomer, unassigned) |
| 410 | CC(C)C[C@@H]1NC(=O)[C@@H](C(C)C)NC(=O)[C@@H]2CCCN2C(=O)[C@@H](CCC(=O)O)NC(=O)[C@@H](Cc2c[nH]c3ccccc23)NC1=O (single isomer, unassigned) |
| 19 | CC(C)C[C@@H]1NC(=O)[C@@H](C2=CCC=CC2)NC(=O)[C@@H]2CCCN2C(=O)[C@@H](CC(=O)O)NC(=O)[C@@H](Cc2c[nH]c3ccccc23)NC1=O (single isomer, unassigned) |
| 47 | CCC[C@H]1NC(=O)[C@@H]2CCCN2C(=O)[C@@H](CC(=O)O)NC(=O)[C@@H](Cc2c[nH]c3ccccc23)NC(=O)[C@H](CC(C)C)NC1=O (single isomer, unassigned) |
| 390 | COC(=O)C[C@H]1NC(=O)[C@@H](Cc2c[nH]c3ccccc23)NC(=O)[C@H](CC(C)C)NC(=O)[C@@H](C(C)C)NC(=O)[C@@H]2CCCN2C1=O (single isomer, unassigned) |
| 18 | CC(C)C[C@@H]1NC(=O)[C@@H](C(C)C)NC(=O)[C@@H]2CCCN2C(=O)[C@@H](CC(=O)O)NC(=O)[C@@H](Cc2cn(C=O)c3ccccc23)NC1=O (single isomer, unassigned) |
| 24 | CC(C)C[C@@H]1NC(=O)[C@@H](c2ccccc2)NC(=O)[C@@H]2CCCN2C(=O)[C@@H](CC(=O)O)NC(=O)[C@@H](Cc2c[nH]c3ccccc23)NC1=O (single isomer, unassigned) |
| 330 | CC(C)C[C@@H]1NC(=O)[C@@H](C(C)C)NC(=O)C(C)(C)NC(=O)[C@@H](CC(=O)O)NC(=O)[C@@H](Cc2c[nH]c3ccccc23)NC1=O (single isomer, unassigned) |
| 33 | CCC[C@@H]1NC(=O)[C@@H](C(C)C)NC(=O)[C@@H]2CCCN2C(=O)[C@@H](CC(=O)O)NC(=O)[C@@H](Cc2c[nH]c3ccccc23)NC1=O (single isomer, unassigned) |
